pIC50: −log10 of the molar value.
Legend:
[1] = biological target: T1, rat EP2 prostaglandin E2 receptor (Rattus norvegicus, UniProt Q62928); test: Rat EP2 receptor binding assay (displacement of 3H-prostaglandin E2); details: 293S cell membranes expressing rat EP2, 3 nM 3H-prostaglandin E2, 1 hour at 25° C.
T1 construct: This full length receptor is used to prepare 293S cells expressing the EP2 receptor; expressed in transfected cells; membranes used in the assay
From the text: Rat EP2 Recptor Binding Assay
Assay for Binding to Prostaglandin E2 Receptors
The full length EP2 receptor is made as disclosed in Nemoto et al., Prostaglandins and other Lipid Mediators, 1997, 54, 713-725. This full length receptor is used to prepare 293S cells expressing the EP2 receptor.
293S cells expressing the rat EP2 prostaglandin E2 receptor are generated according to methods known to those skilled in the art. Typically, PCR (polymerase chain reaction) primers corresponding to the 5′ and 3′ ends of the published full length receptor are made according to the well known methods disclosed above and are used in an RT-PCR reaction using the total RNA from rat kidney as a source. […]
Membrane Preparation: All operations are performed at 4° C. […] Pelleted membranes are resuspended to 3-10 mg protein per ml, protein concentration being determined of the method of Bradford [Bradford, M., Anal. Biochem., 72, 248 (1976)]. […]
Binding Assay: Frozen membranes prepared as above are thawed and diluted to 1 mg protein per ml in Buffer A above. […] To determine the amount of ^3H-prostaglandin bound to the membranes, the dried filters are placed into plastic bags with scintillation fluid and counted in a LKB 1205 Betaplate reader (Wallac, Gaithersburg, Md.). […]

[2] = Metabolism of 14C-parent in rat liver microsomes; format: in vitro ADME; details: 20 μM 14C-parent, NADPH, 30 minutes, 37° C.; HPLC radiochromatogram peak
Experimental: (§1) Human (HL-mix 12), rat, monkey and dog liver microsomes were prepared by differential centrifugation using standard procedures. Prior to use, liver microsomes were thawed on ice and reconstituted using 100 mM potassium phosphate pH 7.4. [^14C]-(3-{[4-tert-butyl-benzyl)-(pyridine-3-sulfonyl)-amino]-methyl}-phenoxy)-acetic acid was dissolved 100 mM potassium phosphate pH 7.4 at a final substrate concentration of 20 μM. Samples were pre-incubated for 3 min with microsomes (CYP 450; 0.5 μM) at 37° C. in a shaking water bath. Incubations were initiated with the addition of 100 μl cofactor (1.1 mM NADPH, 10 mM MgCl2) per 1 ml of incubation mixture. Incubations were stopped after 30 minutes by the addition of an equal volume of cold acetonitrile.
(§2) Metabolite quantification was performed by measuring the areas of individually separated HPLC peaks using the β-RAM (IN/US, Win-flow). […]
(§3) Identification of the metabolites was performed using a Finnigan TSQ 7000 triple quadrupole mass spectrometer equipped with an API-2 electrospray interface. […] The β-RAM response was recorded as a real time analog signal by the MS data collection system. The collected data from the radioactivity and MS detectors were separated by the dwell volume of flow from the MS to the radioactivity detector (corresponding to a dwell time of about 0.2 min.). […]

[3] = Metabolism of 14C-parent in monkey liver microsomes; format: in vitro ADME; details: 20 μM 14C-parent, NADPH, 30 minutes, 37° C.; HPLC radiochromatogram peak
Experimental: as §1, §2, §3

[4] = test system: Dog hepatocytes; test: Metabolism of parent in dog hepatocytes; format: in vitro ADME, Beagle dogs; details: 20 μM parent, 2 million cells per ml, 4 hours, 37° C.
Experimental: (§4) Human hepatocytes were generated from a mix of 3 livers. Rat and monkey hepatocytes were generated using Sprague Dawley rats (12 livers), Cynomolgus monkey (1 liver) and Beagle dogs (2 livers). Cryopreserved hepatocytes were suspended in William's E media with 10% FBS to a viable count of 2 million cells per ml and gassed with 95/5 O2/CO2 initially and every hour of incubations. After the addition of 20 μM (3-{[4-tert-butyl-benzyl)-(pyridine-3-sulfonyl)-amino]-methyl}-phenoxy)-acetic acid to a 25 ml Erlenmeyer flask, 2.5 ml of hepatocytes suspension was added and incubated for 4 hours at 37° C. in a shaking water bath.
(§5) Metabolite quantification was performed by measuring the areas of individually separated HPLC peaks using the β-RAM (IN/US, Win-flow). The β-RAM provided integrated peak representation printouts in CPM as well as the percentage of the radiolabeled material. The β-RAM was operated using a solid scintillation cell.
Incubations were stopped by the addition of an equal volume of cold acetonitrile, sonicated and centrifuged at 3000 rpm for 10 minutes. The supernatants were removed and evaporated to dryness under nitrogen. Residues were reconstituted in 50:50 (acetonitrile: water) and aliquots (50-90 μl) were injected onto the HPLC system for analysis.
The HPLC system consisted of a HP-1100 solvent delivery system, a HP-1100 membrane degasser, a HP-1100 autoinjector (Hewlett Packard) and an IN/US radioactive monitor (β-RAM). Chromatography was performed on a YMC AQ (C-18) column (4.6 mm×150 mm, 3 μm) (Waters, Milford, Mass.). […]
as §3

[5] = Metabolism of 14C-parent in dog liver microsomes; format: in vitro ADME; details: 20 μM 14C-parent, NADPH, 30 minutes, 37° C.; HPLC radiochromatogram peak
Experimental: as §1, §2, §3

[6] = test system: Monkey hepatocytes; test: Metabolism of parent in monkey hepatocytes; format: in vitro ADME, Cynomolgus monkey; details: 20 μM parent, 2 million cells per ml, 4 hours, 37° C.; mobile phase pH 5.0
Experimental: as §4
as §5, with “cell. […]” for “cell.”
as §3

[7] = test system: Rat hepatocytes; test: Metabolism of parent in rat hepatocytes; format: in vitro ADME, Sprague Dawley rats; details: 20 μM parent, 2 million cells per ml, 4 hours, 37° C.
Experimental: as §4
as §5, with “cell. […]” for “cell.”
as §3

T1 sequence (Q62928 whole entry): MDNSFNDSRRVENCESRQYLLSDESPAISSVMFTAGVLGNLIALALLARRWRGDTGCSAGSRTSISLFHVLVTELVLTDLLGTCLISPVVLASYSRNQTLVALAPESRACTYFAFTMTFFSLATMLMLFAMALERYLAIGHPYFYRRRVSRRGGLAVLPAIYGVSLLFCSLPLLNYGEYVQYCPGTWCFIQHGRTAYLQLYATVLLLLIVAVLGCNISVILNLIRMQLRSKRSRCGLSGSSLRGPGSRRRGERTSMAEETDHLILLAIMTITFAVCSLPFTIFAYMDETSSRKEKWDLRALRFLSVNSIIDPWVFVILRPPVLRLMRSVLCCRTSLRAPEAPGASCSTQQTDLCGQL

Row | Compound | Percent of Radioactivity, Dog hepatocytes [4] [%] | Percent of Radioactivity, Rat hepatocytes [7] [%] | further results
1 | CC(C)(C(=O)O)c1ccc(CN(Cc2cccc(OCC(=O)O)c2)S(=O)(=O)c2cccnc2)cc1 [Metabolite M3, 2-(4-{[(3-carboxymethoxy-benzyl)-(pyridine-3-sulfonyl)-amino]-methyl}-phenyl)-2-methyl-propionic acid] | – | – | pIC50 [1]: 6.12
2 | CC(C)(C(=O)O)c1ccc(CNS(=O)(=O)c2cccnc2)cc1 [Metabolite M11, 2-methyl-2-{4-[(pyridine-3-sulfonylamino)-methyl]-phenyl}-propionic acid] | – | – | Percent of Radioactivity, Rat liver microsomes [2]: 20.7%; Percent of Radioactivity, Monkey liver microsomes [3]: 7.97%
3 | CC(C)(C)c1ccc(CN(Cc2ccc(O)c(OCC(=O)O)c2)S(=O)(=O)c2cccnc2)cc1 [Metabolite M12, (5-{[(4-tert-butyl-benzyl)-(pyridine-3-sulfonyl)-amino]-methyl}-hydroxy-phenoxy)-acetic acid] | 15.0 | – | –
4 | CC(C)(C)c1ccc(CNS(=O)(=O)c2cccnc2)cc1 [Metabolite M20, pyridine-3-sulfonic acid 4-tert-butyl-benzylamide] | – | – | Percent of Radioactivity, Dog liver microsomes [5]: 1.96%
5 | CC(C)(CO)c1ccc(CNS(=O)(=O)c2cccnc2)cc1 [Metabolite M21, pyridine-3-sulfonic acid 4-(2-hydroxy-1,1-dimethyl-ethyl)-benzylamide] | 7.92 | 8.91 | Percent of Radioactivity, Monkey hepatocytes [6]: 4.53%
6 | dihydroxy (3-{[4-tert-butyl-benzyl)-(pyridine-3-sulfonyl)-amino]-methyl}-phenoxy)-acetic acid [Metabolite M2] | 6.59 | 15.1 | –

Source: patent publication US6852863B2, “Metabolites of (3-{[4-tert-butyl-benzyl)-(pyridine-3-sulfonyl)-amino]-methyl}-phenoxy)-acetic acid” (Pfizer Inc., priority 2002, dated 2005)
